The source of these data is ChEMBL document CHEMBL1201862, “PubChem BioAssay data set” (2004).

Experiment in all cases: NCI-60 cell line screen, 48 h
Test [1] deals with SK-MEL-2.
Test [2] deals with EKVX.
The test system of test [3] is OVCAR-8.
Test [4] concerns SNB-75.
Test [5] deals with PC-3.
Test [6] has as its system UACC-62.
In test [7] the test system is RPMI-8226.
In test [8] the test system is Hs-578T.
For test [9], the system named is LOX IMVI.
The test system of test [10] is RXF 393.
Test [11] deals with NCI-H522.
The subject of test [12] is MDA-N.
Test [13] concerns HCT-116.
In test [14] the test system is KM-20L2.
In test [15] the test system is SF-539.
In test [16] the test system is HOP-92.
Test [17] has as its system COLO 205.
For test [18], the system named is OVCAR-3.
For test [19], the system named is NCI-H23.
Test [20] relates to HCT-15.

The structures appear in SMILES notation.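 Five concentrations, 48 hours, 96-well plates. GI50 = concentration required for 50% inhibition of growth.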 Activity calls are given as the source filed them. No stated cut-off is given here; in the data, active = GI50 up to about 1.1 µM and inactive = higher.

Regarding `O=C1C(CO)=C(CO)C(=O)c2c(O)ccc(O)c21`, the GI50 in test [1] is 1050 nM (active); in test [2], 2250 nM (inactive); in test [3], 942 nM (active); in test [4], 388 nM (active); in test [5], 1970 nM (inactive); in test [6], 782 nM (active). Moreover, the GI50 in [7] is 117 nM (active); in [8] it was 1450 nM (inactive); in test [9], 252 nM (active); in test [10], 390 nM (active); in test [11], 89.7 nM (active); in test [12] it was 236 nM (active). For the same compound, the GI50 in [13] was 218 nM (active); in test [14], 498 nM (active); in test [15], 705 nM (active); in test [16], 261 nM (active); in test [17] it was 40.8 nM (active); in test [18], 655 nM (active). For the same compound, the results for the GI50 in [19] and in test [20] were 389 nM (active) and 214 nM, respectively.
